In patent EP4729518A1, “CRYSTAL FORM OF METHIONINE ADENOSYLTRANSFERASE 2A HETEROCYCLIC INHIBITOR, PREPARATION METHOD THEREFOR, AND USE THEREOF” (Nanjing Chia Tai Tianqing Pharmaceutical Co., Ltd., priority 2023, dated 2024):
Blank lines part the entries; values can stand above or below the compound they belong to.

Columns and labels:
[1] = Solid state stability of crystal forms (XRD and HPLC); type: physicochemical
Procedure: Samples of the crystal forms B, H, and L were placed under the conditions of 25 °C/60% RH and 40 °C/75% RH for 17 days, and then the physicochemical stability of the samples was tested using XRD and HPLC. Table 24: Summary of solid state stability evaluation of crystal forms

[2] = Suspension stirring competition among anhydrous crystal forms (XRD); type: physicochemical; conditions: different solvents and temperatures (room temperature/50 °C)
Procedure: The interconversion relationships among the various anhydrous crystal forms were investigated using a suspension stirring competition method in different solvent systems at different temperatures. 1) Equal masses (3-4 mg) of the various anhydrous crystal forms (crystal forms A/B/C/G/H/L/M) were separately weighed and added to HPLC vials. To each vial, 1.0 mL of the corresponding solvent that had been pre-saturated with the crystal form G at the corresponding temperature was added. The resulting suspensions were magnetically stirred (1000 rpm) at room temperature or 50 °C. Samples were taken at 10 min, 3 d, and 7 d, and then centrifuged to collect the solids, which were then subjected to XRD analysis. Table 25: Summary of results of suspension stirring competition test among various anhydrous crystal forms
2) Equal masses (about 5 mg) of the various anhydrous crystal forms (crystal forms B/H/L) were separately weighed and added to HPLC vials. To each vial, 1.0 mL of a solvent that had been pre-saturated with the crystal form G at the corresponding temperature was added. The resulting suspensions were magnetically stirred (1000 rpm) at room temperature or 50 °C. Samples were taken at 10 min, 6 h, 1 d, 4 d, and 7 d, and then centrifuged to collect the solids, which were then subjected to XRD analysis. […]

[3] = Heating experiment via DSC followed by XRD; type: physicochemical; conditions: Heating temperature 250 °C
Description: The heated samples were then collected and subjected to XRD analysis. Table 27: Summary of heating test results for various crystal forms

[4] = Long-term stability study (XRD and HPLC); type: physicochemical; conditions: 40±2 °C/75%±5% RH
Procedure: A sample of the crystal form L was placed under the conditions of 40±2 °C/75%±5% RH, and the physicochemical stability of the sample was tested using XRD and HPLC.

MAT2A enzyme = biological target: T1, MAT2A enzyme (Homo sapiens, UniProt P31153); test: MAT2A enzymatic assay (Biomol Green, OD620); type: biochemical
T1 construct: purchased BPS 71401
Procedure: • a) First, a 5× MAT2A assay buffer (250 mM Tris-HCl, pH 8.0; 250 mM KCl; 75 mM MgCl2; 0.025% BSA; 0.05% Brij35; 1.5 mM EDTA) was prepared and partially diluted to 1× for later use. • b) Preparation and addition of MAT2A enzyme (BPS, 71401): The MAT2A enzyme was diluted to 3.674 ng/µL (1.67×, final concentration: 2.20 ng/µL) with the 1× MAT2A assay buffer. Using a BioTek (MultiFlo FX) automated dispenser, the 1.67× MAT2A enzyme solution was added to the compound test wells and negative control wells of a plate at 15 µL/well, and meanwhile, the 1× MAT2A assay buffer was added to the blank control wells at 15 µL/well. • c) Preparation and addition of compounds: The test compound was diluted from a 10 mM stock solution to 100 µM with DMSO, and the positive control drug AGI-24512 was diluted under the same conditions. Using a Tecan compound dispenser (D300e), the dilutions were automatically dispensed into each well according to a preset concentration gradient. The dispensed volume was minimal and considered negligible. The concentration gradient started at 1 µM (1/2 log dilution), and a total of 8 gradient points were set. The plate was centrifuged at 2500 rpm for 30 s and incubated at 25 °C for 30 min. • d) Preparation of ATP: 10 mM ATP (Sigma, A7699) was diluted to 700 µM with the 1× MAT2A assay buffer for later use. • e) Preparation and addition of mixed solution of substrate and ATP: A mixed solution was prepared containing the 5× MAT2A assay buffer (3 µL/well), 750 µM L-methionine (Adamas, 01100469) (2.5 µL/well), 700 µM ATP (2.5 µL/well), and double distilled water (2 µL/well). The total amount of the required mixed solution was prepared according to the number of detection wells. Using a BioTek (MultiFlo FX) automated dispenser, the mixed solution was added at 10 µL/well. The resulting mixture was centrifuged at 2500 rpm for 30 s and allowed to react at 25 °C for 150 min. • f) Addition of Biomol Green detection reagent: Using a BioTek (MultiFlo FX) automated dispenser, Biomol Green (Enzo, BML-AK111) was added at 50 µL/well. The plate was centrifuged at 2500 rpm for 30 s and incubated at 25 °C for 20 min. • g) After the reaction was completed, the OD620 values were measured using a Perkin Elmer (Envision 2105) multimode microplate reader.
The inhibition rate was calculated using the following formula: Inhibition rate % = (ODmax −ODsample)/(ODmax −ODmin) × 100% [formula] where: • ODsample represents the OD620 value of the sample well; • ODmin represents the mean OD620 value of the blank control wells containing no enzyme and no test compound; • ODmax represents the mean OD620 value of the negative control wells containing enzyme but no compound. […]

HCT116 MTAP-/- cells = test: Cellular assay: cell proliferation inhibition (CellTiter-Glo); type: cell-based; conditions: Homo sapiens, HCT-116; incubated for 120 h
Procedure: HCT116 MTAP-/- cells (purchased from Horizon Discovery) (a human colorectal cancer cell strain with deletion of MTAP gene) were cultured in a medium containing RPMI 1640 + 10% FBS (fetal bovine serum). On day 0 of the experiment, the viable cell density of the aforementioned cells in the logarithmic growth phase was adjusted to 5000 cells/mL, and then the cells were seeded into a 96-well plate at 100 µL/well, with blank group wells set up in parallel. The seeded cell plate was placed in an incubator at 37 °C with 5% CO2 and incubated overnight.
On day 1 of the experiment, the cell plate incubated overnight was taken out, and the supernatant was discarded. A serum-free RPMI 1640 medium was then added at 80 µL/well, and the plate was placed in an incubator for starvation culture for 4 h. The test compound was dissolved in DMSO (dimethyl sulfoxide) to prepare a 10 mM compound stock solution. After the starvation was completed, the cell plate was taken out, and a medium containing RPMI 1640 + 20% FBS was further added at 80 µL/well. The cell plate was placed on an automated dispenser D300e (Tecan), with the program for compound addition set as follows: the highest concentration of the compound tested was 30 µM, and 3-fold gradient dilution was performed with DMSO to give a total of 10 concentrations; two replicate wells were set for each concentration; the final concentration of DMSO in each well of the 96-well plate was 0.3% (v/v). The pre-prepared 10 mM test compound stock solution was taken and then added by running the aforementioned drug addition program. After the drug addition was completed, the cell plate was placed in an incubator and incubated for 120 h.
On day 6 of the experiment, the cell plate was taken out, and CellTiter-Glo® (purchased from Promega) was added at 50 µL/well. The […] was measured on Envision (PerkinElmer) according to the operation procedures in the instructions. […]

[5] = In vivo pharmacokinetic study in ICR mice; conditions: mouse, PO @ 10 mg/kg, male ICR mice, plasma; for AUC(0-t): read-out: Area under the curve AUC0-t; for Cmax: read-out: Peak concentration Cmax
Procedure: Male ICR mice (6-10 weeks old, Vital River Laboratory Animal Technology Co., Ltd.) were housed in an SPF animal room at a temperature of 20-25 °C, with a relative humidity of 40%-70%, and under a 12/12-hour light/dark cycle. The animals were given free access to water and food. After at least 5 days of normal feeding, mice with good physical signs as determined by a veterinarian could be included in this experiment. Each mouse was marked with a number on the tail.
The day before the experiment, the mice were fasted overnight, with free access to water. They were fed 4 h after administration. The compound was prepared into a 20 mg/mL stock solution with DMSO. An appropriate volume of the 20 mg/mL stock solution was accurately pipetted into a glass flask, and then an appropriate volume of PEG400 was added. The mixture was mixed well, and then propylene glycol (PG) was added. The ratio of vehicles in the final formulation was DMSO:PEG400:PG (v/v/v) = 5:65:30. This process yielded a test dosing solution of each test compound at a concentration of 1 mg/mL.
The mice were weighed, and then the theoretical administration volume for each mouse was calculated according to the following formula. The actual administered dose for each mouse and the time of blood sample collection should be recorded in detail in the corresponding table. Theoretical administration volume(mL); = ((Dose(mg⋅kg^−1))/(Concentration of test solution(mg⋅mL^−1))) × Animal body weight(kg) [formula]
On the day of the experiment, the test dosing solution of each test compound was intragastrically administered to the mice in each group at a dose of 10 mg/kg. At each time point after administration, about 40 µL of blood was collected from the orbit of each mouse and then placed into an EDTA-K2 anticoagulation tube. The whole blood samples were centrifuged at 1500-1600 g for 10 min. The separated plasma was stored in a freezer at -40 °C to -20 °C for biological sample analysis.
The concentrations of the compounds in the biological samples obtained from the experiment were determined using an LC-MS/MS analysis method. Pharmacokinetic parameters were calculated using a non-compartmental model in Pharsight Phoenix 7.0.

T1 sequence (P31153 whole entry): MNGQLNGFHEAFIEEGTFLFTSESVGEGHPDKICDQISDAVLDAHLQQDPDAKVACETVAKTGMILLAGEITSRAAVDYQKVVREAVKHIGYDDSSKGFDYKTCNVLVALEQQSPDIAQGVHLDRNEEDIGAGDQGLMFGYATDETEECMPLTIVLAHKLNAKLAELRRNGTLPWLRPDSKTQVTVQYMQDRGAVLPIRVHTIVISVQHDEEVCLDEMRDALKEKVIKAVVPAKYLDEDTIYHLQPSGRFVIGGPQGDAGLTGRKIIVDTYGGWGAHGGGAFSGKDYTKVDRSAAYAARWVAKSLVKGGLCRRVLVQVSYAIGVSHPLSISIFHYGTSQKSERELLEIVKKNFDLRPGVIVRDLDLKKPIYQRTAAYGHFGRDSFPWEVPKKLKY

Crystal form change ([1]; 0 day): No | Purity ([1]; 0 day): 98.60% | Crystal form change ([1]; 25 °C/60% RH/17 days): No | Purity ([1]; 25 °C/60% RH/17 days): 99.04% | Crystal form change ([1]; 40 °C/75% RH/17 days): No | Purity ([1]; 40 °C/75% RH/17 days): 99.00% | stability in suspension stirring competition [2]: stable crystal form | After heating (crystal form) [3]: Crystal form A | Crystal form change ([4]; 0 days): No | Water content ([4]; 0 days): Undetectable | Crystal form change ([4]; 1 month): No | Related substance Total impurities ([4]; 1 month): 0.22% | Water content ([4]; 1 month): Undetectable | Crystal form change ([4]; 2 months): No | Related substance Total impurities ([4]; 2 months): 0.26% | Crystal form change ([4]; 3 months): No | Related substance Total impurities ([4]; 3 months): 0.26% | Crystal form change ([4]; 6 months): No | Related substance Total impurities ([4]; 6 months): 0.27% | Water content ([4]; 6 months): Undetectable
SMILES: Cn1cc2cc(-c3nn4ccc(C5CC5)nc4c(-c4ccc(OC(F)F)cc4)c3=O)ccc2n1 [Crystal form L, 2-cyclopropyl-9-[4-(difluoromethoxy)phenyl]-7-(2-methyl-2H-indazol-5-yl)-8H-pyrimido[1,2-b]pyridazin-8-one]
change in crystal form or purity ([1]; 25 °C/60% RH for 17 days): no change in either crystal form or purity | change in crystal form or purity ([1]; 40 °C/75% RH for 17 days): no change in either crystal form or purity

IC50 (MAT2A enzyme): 6.44 nM | IC50 (HCT116 MTAP-/- cells): 260 nM | AUC(0-t) [5]: 45500 ng·h/mL | Cmax [5]: 2070 ng/mL
SMILES: O=c1c(-c2ccc(OC(F)F)cc2)nn2ccc(C3CC3)nc2c1-c1ccc(OC(F)F)cc1 [Example 1, 2-Cyclopropyl-7,9-bis[4-(difluoromethoxy)phenyl]-8H-pyrimido[1,2-b]pyridazin-8-one]

IC50 (MAT2A enzyme): 11.4 nM | IC50 (HCT116 MTAP-/- cells): 119 nM | AUC(0-t) [5]: 8730 ng·h/mL | Cmax [5]: 1370 ng/mL
SMILES: O=c1c(-c2ccc3c(c2)OCO3)nn2ccc(C3CC3)nc2c1-c1ccc2c(c1)OCO2 [Example 2, 7,9-Bis(benzo[d][1,3]dioxol-5-yl)-2-cyclopropyl-8H-pyrimido[1,2-b]pyridazin-8-one]

IC50 (MAT2A enzyme): 10.7 nM | IC50 (HCT116 MTAP-/- cells): 14.3 nM | AUC(0-t) [5]: 78300 ng·h/mL | Cmax [5]: 4210 ng/mL
SMILES: Cn1cc2cc(-c3nn4ccc(C5CC5)nc4c(-c4ccc(OC(F)F)cc4)c3=O)ccc2n1 [Example 3, 2-Cyclopropyl-9-[4-(difluoromethoxy)phenyl]-7-(2-methyl-2H-indazol-5-yl)-8H-pyrimido[1,2-b]pyridazin-8-one]
